Measured values: US20250353820A1, “ANTIVIRAL PYRAZOLOPYRIDINONE COMPOUNDS” (Novartis AG, priority 2019, published 2025)
Counter-ions that a name gives are not always drawn.

The compounds below were run against human HSV DNA polymerase UL30 (Human herpesvirus 1 (strain 17) (HHV-1) (Human herpes simplex virus 1), UniProt P04293) (assay: biochemical). Conditions: 625 pM HSV polymerase, 20 minutes at room temperature; read-out: HSV-polymerase Biochemical IC50.

First: Cc1cc(NS(=O)(=O)C2(CN3CCc4c(C(=O)NCc5ccc(Cl)cc5)nn(C)c4C3=O)CC2)no1 [Example 166]
Second: Cn1nc(C(=O)NCc2ccc(C#N)cc2)c2c1C(=O)N(CC1(S(=O)(=O)Nc3cc(C4CC4)on3)CC1)CC2 [Example 167]
The IC50 of the first is 8.7-fold lower: 12 nM for the first, 104 nM for the second. The first is the more potent here.

Compared with Cn1nc(C(=O)NCc2ccc(C#N)cc2)c2c1C(=O)N(CC1(S(=O)(=O)C3CCOCC3)CC1)CC2 [Example 169], N#Cc1ccc(CNC(=O)c2nn(CCO)c3c2CCN(CC2(S(=O)(=O)C4CC4)CC2)C3=O)cc1 [Example 216, N-(4-Cyanobenzyl)-6-((1-(cyclopropylsulfonyl)cyclopropyl)methyl)-1-(2-hydroxyethyl)-7-oxo-4,5,6,7-tetrahydro-1H-pyrazolo[3,4-c]pyridine-3-carboxamide] is 3.4-fold lower in IC50: 238 nM for the first, 69 nM for the second. The second is the more potent here.

Cn1nc(C(=O)NCc2ccc(C#N)cc2)c2c1C(=O)N(CC1(S(=O)(=O)C3(C)COC3)CC1)CC2 [Example 172, N-(4-Cyanobenzyl)-1-methyl-6-((1-((3-methyloxetan-3-yl)sulfonyl)cyclopropyl)methyl)-7-oxo-4,5,6,7-tetrahydro-1H-pyrazolo[3,4-c]pyridine-3-carboxamide] and Cn1nc(C(=O)NCc2ccc(C#N)cc2)c2c1C(=O)N(CC1(S(=O)(=O)C3(CO)COC3)CC1)CC2 [Example 173, N-(4-Cyanobenzyl)-6-((1-((3-(hydroxymethyl)oxetan-3-yl)sulfonyl)cyclopropyl)methyl)-1-methyl-7-oxo-4,5,6,7-tetrahydro-1H-pyrazolo[3,4-c]pyridine-3-carboxamide] are within 1.5-fold of each other in IC50: 63 nM for the first, 62 nM for the second.

Going from Cn1nc(C(=O)NCc2ccc(C#N)cc2)c2c1C(=O)N(CC1(S(=O)(=O)C3(CN)COC3)CC1)CC2 [Example 174, 6-((1-((3-(Aminomethyl)oxetan-3-yl)sulfonyl)cyclopropyl)methyl)-N-(4-cyanobenzyl)-1-methyl-7-oxo-4,5,6,7-tetrahydro-1H-pyrazolo[3,4-c]pyridine-3-carboxamide] to Cn1nc(C(=O)NCc2ccc(C#N)cc2)c2c1C(=O)N(CC1(S(=O)(=O)C3(C(O)CN)CC3)CC1)CC2 (centres unmarked) [Example 208], the IC50 falls from 92 nM to 22 nM (4.2-fold).

Cn1nc(C(=O)NCc2ccc(Cl)cc2)c2c1C(=O)N(CC1(S(=O)(=O)C(C)(CO)CO)CC1)CC2 [Example 175, N-(4-chlorobenzyl)-6-((1-((1,3-dihydroxy-2-methylpropan-2-yl)sulfonyl)cyclopropyl)methyl)-1-methyl-7-oxo-4,5,6,7-tetrahydro-1H-pyrazolo[3,4-c]pyridine-3-carboxamide] and Cn1nc(C(=O)NCc2ccc(Cl)cc2)c2c1C(=O)N(CC1(S(=O)(=O)C(C)(C)[C@@H](O)CO)CC1)CC2 [Example 190, (S)—N-(4-Chlorobenzyl)-6-((1-((3,4-dihydroxy-2-methylbutan-2-yl)sulfonyl)cyclopropyl)methyl)-1-methyl-7-oxo-4,5,6,7-tetrahydro-1H-pyrazolo[3,4-c]pyridine-3-carboxamide] are within 1.5-fold of each other in IC50: 27 nM for the first, 20 nM for the second.

COCC(C)(COC)S(=O)(=O)C1(CN2CCc3c(C(=O)NCc4ccc(C#N)cc4)nn(C)c3C2=O)CC1 [Example 179, N-(4-Cyanobenzyl)-6-((1-((1,3-dimethoxy-2-methylpropan-2-yl)sulfonyl)cyclopropyl)methyl)-1-methyl-7-oxo-4,5,6,7-tetrahydro-1H-pyrazolo[3,4-c]pyridine-3-carboxamide] and Cn1nc(C(=O)NCc2ccc(C#N)cc2)c2c1C(=O)N(CC1(S(=O)(=O)C(C)(CN)CO)CC1)CC2 (centres unmarked) [Example 183, 6-((1-((1-Amino-3-hydroxy-2-methylpropan-2-yl)sulfonyl)cyclopropyl)methyl)-N-(4-cyanobenzyl)-1-methyl-7-oxo-4,5,6,7-tetrahydro-1H-pyrazolo[3,4-c]pyridine-3-carboxamide] are within 1.5-fold of each other in IC50: 61 nM for the first, 65 nM for the second.

Going from Cn1nc(C(=O)NCc2ccc(Cl)cc2)c2c1C(=O)N(CC1(S(=O)(=O)C(C)(C)[C@H](O)CO)CC1)CC2 [Example 191, (R)—N-(4-Chlorobenzyl)-6-((1-((3,4-dihydroxy-2-methylbutan-2-yl)sulfonyl)cyclopropyl)methyl)-1-methyl-7-oxo-4,5,6,7-tetrahydro-1H-pyrazolo[3,4-c]pyridine-3-carboxamide] to Cn1nc(C(=O)NCc2ccc(Cl)cc2)c2c1C(=O)N(CC1(S(=O)(=O)C(C)(C)[C@H](N)CO)CC1)CC2 [Example 214, (R)-6-((1-((3-Amino-4-hydroxy-2-methylbutan-2-yl)sulfonyl)cyclopropyl)methyl)-N-(4-chlorobenzyl)-1-methyl-7-oxo-4,5,6,7-tetrahydro-1H-pyrazolo[3,4-c]pyridine-3-carboxamide hydrochloride], the IC50 rises from 11 nM to 32 nM (2.9-fold).

Cn1nc(C(=O)NCc2ccc(C#N)cc2)c2c1C(=O)N(CC1(S(=O)(=O)C(C)(C)[C@@H](O)CO)CC1)CC2 [Example 192, (S)—N-(4-cyanobenzyl)-6-((1-((3,4-dihydroxy-2-methylbutan-2-yl)sulfonyl)cyclopropyl)methyl)-1-methyl-7-oxo-4,5,6,7-tetrahydro-1H-pyrazolo[3,4-c]pyridine-3-carboxamide] and Cn1nc(C(=O)NCc2ccc(C#N)cc2)c2c1C(=O)N(CC1(S(=O)(=O)C(C)(C)[C@H](O)CN)CC1)CC2 [Example 198, (R)-6-((1-((4-amino-3-hydroxy-2-methylbutan-2-yl)sulfonyl)cyclopropyl)methyl)-N-(4-cyanobenzyl)-1-methyl-7-oxo-4,5,6,7-tetrahydro-1H-pyrazolo[3,4-c]pyridine-3-carboxamide] are within 1.5-fold of each other in IC50: 30 nM for the first, 23 nM for the second.

First: Cn1nc(C(=O)NCc2ccc(Cl)cc2)c2c1C(=O)N(CC1(S(=O)(=O)C3(C(O)CN)CC3)CC1)CC2 (centres unmarked) [Example 209]
Second: CC1(S(=O)(=O)C2(CN3CCc4c(C(=O)NCc5ccc(Cl)cc5)nn(CCOCCN)c4C3=O)CC2)CC1 [Example 223, 1-(2-(2-aminoethoxy)ethyl)-N-(4-chlorobenzyl)-6-((1-((1-methylcyclopropyl)sulfonyl)cyclopropyl)methyl)-7-oxo-4,5,6,7-tetrahydro-1H-pyrazolo[3,4-c]pyridine-3-carboxamide]
The IC50 of the first is 2.2-fold lower: 16 nM for the first, 35 nM for the second.

Compared with Cn1nc(C(=O)NCc2ccc(C#N)cc2)c2c1C(=O)N(CC1(S(=O)(=O)C(C)(C)[C@H](N)CO)CC1)CC2 [Example 213, (R)-6-((1-((3-amino-4-hydroxy-2-methylbutan-2-yl)sulfonyl)cyclopropyl)methyl)-N-(4-cyanobenzyl)-1-methyl-7-oxo-4,5,6,7-tetrahydro-1H-pyrazolo[3,4-c]pyridine-3-carboxamide], CC(C)(CO)S(=O)(=O)C1(CN2CCc3c(C(=O)NCc4ccc(C#N)cc4)nn(CCO)c3C2=O)CC1 [Example 220] is 2.1-fold lower in IC50: 48 nM for the first, 23 nM for the second. The second is the more potent here.

CC1(S(=O)(=O)C2(CN3CCc4c(C(=O)NCc5ccc(C#N)cc5)nn(CCO)c4C3=O)CC2)CC1 [Example 217] and CC(C)(O)Cn1nc(C(=O)NCc2ccc(C#N)cc2)c2c1C(=O)N(CC1(S(=O)(=O)C3(CO)CC3)CC1)CC2 [Example 234] are within 1.5-fold of each other in IC50: 26 nM for the first, 19 nM for the second.

First: O=C(NCc1ccc(Cl)cc1)c1nn(CCO)c2c1CCN(CC1(S(=O)(=O)C3CC3)CC1)C2=O [Example 218]
Second: CS(=O)(=O)C1(CN2CCc3c(C(=O)NCc4ccc(Cl)cc4)nn(CCO)c3C2=O)CC1 [Example 219]
The IC50 of the first is 8-fold lower: 50 nM for the first, 401 nM for the second.

Going from CC(C)(CO)S(=O)(=O)C1(CN2CCc3c(C(=O)NCc4ccc(Cl)cc4)nn(CCO)c3C2=O)CC1 [Example 221] to CC(C)(O)Cn1nc(C(=O)NCc2ccc(Cl)cc2)c2c1C(=O)N(CC1(S(C)(=O)=O)CC1)CC2 [Example 231], the IC50 rises from 13 nM to 278 nM (21-fold). The first is the more potent here.

CC1(S(=O)(=O)C2(CN3CCc4c(C(=O)NCc5ccc(Cl)cc5)nn(CCOCCO)c4C3=O)CC2)CC1 [Example 222, N-(4-Chlorobenzyl)-1-(2-(2-hydroxyethoxy)ethyl)-6-((1-((1-methylcyclopropyl)sulfonyl)cyclopropyl)methyl)-7-oxo-4,5,6,7-tetrahydro-1H-pyrazolo[3,4-c]pyridine-3-carboxamide] and CC(C)(O)Cn1nc(C(=O)NCc2ccc(Cl)cc2)c2c1C(=O)N(CC1(S(=O)(=O)C3CC3)CC1)CC2 [Example 229, N-(4-Chlorobenzyl)-6-((1-(cyclopropylsulfonyl)cyclopropyl)methyl)-1-(2-hydroxy-2-methylpropyl)-7-oxo-4,5,6,7-tetrahydro-1H-pyrazolo[3,4-c]pyridine-3-carboxamide] are within 1.5-fold of each other in IC50: 43 nM for the first, 31 nM for the second.

First: CCC(=O)Cn1nc(C(=O)NCc2ccc(C#N)cc2)c2c1C(=O)N(CC1(S(=O)(=O)C3CC3)CC1)CC2 [Example 227, N-(4-cyanobenzyl)-6-((1-(cyclopropylsulfonyl)cyclopropyl)methyl)-7-oxo-1-(2-oxobutyl)-4,5,6,7-tetrahydro-1H-pyrazolo[3,4-c]pyridine-3-carboxamide]
Second: N#Cc1ccc(CNC(=O)c2nn(CCCO)c3c2CCN(CC2(S(=O)(=O)C4CC4)CC2)C3=O)cc1 [Example 236, N-(4-Cyanobenzyl)-6-((1-(cyclopropylsulfonyl)cyclopropyl)methyl)-1-(3-hydroxypropyl)-7-oxo-4,5,6,7-tetrahydro-1H-pyrazolo[3,4-c]pyridine-3-carboxamide]
The IC50 of the first is 2.9-fold lower: 31 nM for the first, 91 nM for the second. The first is the more potent here.

First: N#Cc1ccc(CNC(=O)c2nn(CC3(O)CC3)c3c2CCN(CC2(S(=O)(=O)C4CC4)CC2)C3=O)cc1 [Example 228, N-(4-Cyanobenzyl)-6-((1-(cyclopropylsulfonyl)cyclopropyl)methyl)-1-((1-hydroxycyclopropyl)methyl)-7-oxo-4,5,6,7-tetrahydro-1H-pyrazolo[3,4-c]pyridine-3-carboxamide]
Second: CC(C)(O)Cn1nc(C(=O)NCc2ccc(C#N)cc2)c2c1C(=O)N(CC1(S(=O)(=O)C3CC3)CC1)CC2 [Example 230]
The IC50 of the first is 1.6-fold higher: 56 nM for the first, 34 nM for the second.

Compared with CC(C)(O)Cn1nc(C(=O)NCc2ccc(C#N)cc2)c2c1C(=O)N(CC1(S(C)(=O)=O)CC1)CC2 [Example 232], CCS(=O)(=O)C1(CN2CCc3c(C(=O)NCc4ccc(C#N)cc4)nn(CC(C)(C)O)c3C2=O)CC1 [Example 233] is 2.3-fold lower in IC50: 339 nM for the first, 150 nM for the second.

Compound CC(C)(O)Cn1nc(C(=O)NCc2ccc(C#N)cc2)c2c1C(=O)N(CC1(S(=O)(=O)C(C)(C)CO)CC1)CC2 [Example 235] has an IC50 of 16 nM.
